Source: PubChem BioAssay (NCI)
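Exposure lasted 48 hours, with cells grown in 96-well plates and compounds tested at five concentrations. The concentration for 50% growth inhibition is given as GI50. At the TGI there is no net growth.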

Tests used:
Assay in all cases: NCI anticancer screen, dose series, 48 h
MOLT-4 leukemia = system: MOLT-4 leukemia
SNB-75 CNS = system: SNB-75 CNS
NCI-H226 lung = system: NCI-H226 lung
U251 CNS = system: U251 CNS
OVCAR-3 ovarian = system: OVCAR-3 ovarian
SR leukemia = system: SR leukemia
K-562 leukemia = system: K-562 leukemia
HCT-15 colon = system: HCT-15 colon
OVCAR-8 ovarian = system: OVCAR-8 ovarian
HCC-2998 colon = system: HCC-2998 colon

SMILES | TGI (MOLT-4 leukemia) | TGI (SNB-75 CNS) | TGI (NCI-H226 lung) | TGI (U251 CNS) | TGI (OVCAR-3 ovarian) | TGI (SR leukemia) | TGI (K-562 leukemia) | TGI (HCT-15 colon) | TGI (OVCAR-8 ovarian) | TGI (HCC-2998 colon) | GI50 (K-562 leukemia) | GI50 (MOLT-4 leukemia) | GI50 (SNB-75 CNS) | GI50 (NCI-H226 lung) | GI50 (U251 CNS) | GI50 (OVCAR-3 ovarian) | GI50 (SR leukemia) | GI50 (HCC-2998 colon) | GI50 (HCT-15 colon) | GI50 (OVCAR-8 ovarian)
Cc1cn(C2C=CC(COP(=O)(OCc3ccc([N+](=O)[O-])o3)N(C)CCCCCl)O2)c(=O)[nH]c1=O (stereo unspecified) | 26.4 µM | 10.8 µM | 23.6 µM | 18.2 µM | 4.8 µM | 4.83 µM | 21.6 µM | 35.7 µM | 32.4 µM |  |  |  |  |  |  |  |  |  |  | 
CCCCN(CCCC)CCC(O)c1cc(-c2ccc(C(F)(F)F)cc2)nc(-c2ccc(C(F)(F)F)cc2)c1 (stereo unspecified) | > 100 µM | > 100 µM |  | > 100 µM | > 100 µM | > 100 µM | > 100 µM | > 100 µM | > 100 µM | > 100 µM |  |  |  |  |  |  |  |  |  | 
NC1C=NNC1=O (stereo unspecified) | > 100 µM | > 100 µM |  | > 100 µM |  |  | > 100 µM | > 100 µM | > 100 µM | > 100 µM |  |  |  |  |  |  |  |  |  | 
CC(C)=Cc1cc(C)c2c3c(c(O)c(O)c(C)c13)C(C)=CC2=O | 54.7 µM |  | 50.9 µM | 92 µM | 52.7 µM | 78.1 µM | > 100 µM | 51.3 µM | > 100 µM |  |  |  |  |  |  |  |  |  |  | 
COc1cc2c(cc1OC)C1c3ccccc3CCN1CCC2 (stereo unspecified) | > 100 µM | > 100 µM | > 100 µM | > 100 µM | > 100 µM | > 100 µM | > 100 µM | > 100 µM | > 100 µM | > 100 µM |  |  |  |  |  |  |  |  |  | 
CC1C2CCC3C(O)C2(CC(O)C2(O)C1CC(O)C2(C)C)CC3(C)O (stereo unspecified) |  |  | > 100 µM | > 100 µM |  | > 100 µM | > 100 µM | > 100 µM | > 100 µM | > 100 µM |  |  |  |  |  |  |  |  |  | 
COc1ccc(C(=O)NC2=C(Cl)C(=O)c3ccccc3C2=O)cc1 | > 22 µM | 12.8 µM | 9.32 µM | 8.38 µM | 6.26 µM | > 19.6 µM | > 100 µM | 11 µM | 14.4 µM | 16.9 µM |  |  |  |  |  |  |  |  |  | 
OC(c1ccc(Cl)cc1)(c1ccc(Cl)cc1)c1cncnc1 | 52.3 µM | 52.7 µM | 42.2 µM | 37.8 µM | 32.2 µM | > 100 µM | 69.8 µM | 39.8 µM | 54.8 µM |  |  |  |  |  |  |  |  |  |  | 
O=C(Nn1c(-c2cccs2)nc2ccc(I)cc2c1=O)c1ccccc1 | > 100 µM |  | > 100 µM | 73.1 µM | 39.3 µM | 61.4 µM | > 100 µM | > 100 µM | > 100 µM | 58.6 µM | 43.8 µM |  |  |  |  |  |  |  |  | 
Nc1c(OCC(=O)O)ccc2cc(S(=O)(=O)O)ccc12 |  | > 100 µM | > 100 µM | > 100 µM | > 100 µM |  | > 100 µM | > 100 µM | > 100 µM | > 100 µM |  |  |  |  |  |  |  |  |  | 
O=NN1C(c2ccccc2)C2CCCC(C2=O)C1c1ccccc1 (stereo unspecified) | > 78.1 µM | 61 µM | 71 µM | > 84.9 µM | 9.28 µM |  | 55.3 µM | > 87.7 µM | > 100 µM | 34.4 µM |  |  |  |  |  |  |  |  |  | 
c1ccc2c(c1)OCCc1cn[nH]c1-2 | > 100 µM | > 92.5 µM | 95.5 µM | > 100 µM | > 100 µM |  | > 100 µM | > 100 µM | > 100 µM | > 100 µM |  |  |  |  |  |  |  |  |  | 
CN(CCO)Cc1ncccc1O | 89.5 µM | > 100 µM | > 100 µM | > 100 µM | > 100 µM | > 100 µM | > 100 µM | > 100 µM | > 100 µM |  |  |  |  |  |  |  |  |  |  | 
O=C1CCCC/C1=C1/SC(=Nc2ccccc2)C(=Nc2ccccc2)N1c1ccccc1 | > 100 µM | > 100 µM | > 100 µM | > 100 µM | > 100 µM | > 100 µM | > 100 µM | > 100 µM | > 100 µM | > 100 µM |  |  |  |  |  |  |  |  |  | 
CCc1c2cc(OC)c(OC)cc2cc2c3cc(OC)c(OC)cc3cc[n+]12 (tested in a mixture with another compound) | > 100 µM | 38.4 µM | 39.2 µM | 57.2 µM | > 89.8 µM | > 57.9 µM | > 45.6 µM | > 61.7 µM | > 72.6 µM | 52 µM |  |  |  |  |  |  |  |  |  | 
O=C(O)C1OC1C(=O)O (stereo unspecified) |  | > 100 µM | > 100 µM | > 100 µM | > 100 µM | > 100 µM | > 100 µM | > 100 µM | > 100 µM | > 100 µM |  |  |  |  |  |  |  |  |  | 
CN1CC(c2ccccc2)C(O)(C2(c3ccccc3)CN(C)CC(c3ccccc3)C2=O)C(c2ccccc2)C1 (stereo unspecified) | > 100 µM |  | > 100 µM | > 100 µM | > 100 µM | > 100 µM | > 100 µM | > 100 µM | > 100 µM |  |  |  |  |  |  |  |  |  |  | 
CC[C@@]1(OC(=O)CN(C)C)C(=O)OCc2c1cc1n(c2=O)Cc2cc3c(N)cccc3nc2-1 | 0.211 µM | 0.283 µM | 0.161 µM | 0.249 µM | 0.218 µM | 0.176 µM | > 100 µM | > 100 µM | 0.488 µM | 0.875 µM | 0.0455 µM | < 0.01 µM | 0.0428 µM | 0.0233 µM | 0.0217 µM | 0.0383 µM | < 0.01 µM | 0.131 µM | 0.317 µM | 0.0272 µM
C[C@]12Cc3cnc(-c4ccccc4)nc3C[C@@H]1CC[C@@H]1[C@@H]2CC[C@@]2(C)[C@H]1CC[C@]2(C)O | > 100 µM | 21.6 µM | 58.1 µM | 41.4 µM | 54.4 µM | 88.5 µM | 29.4 µM | > 63.2 µM | 40.4 µM | 37.9 µM |  |  |  |  |  |  |  |  |  | 
CCC1C(C#N)=C(O)NC(O)=C1C#N |  | > 100 µM | > 100 µM | > 100 µM | > 100 µM |  |  | > 100 µM | > 100 µM | > 100 µM |  |  |  |  |  |  |  |  |  | 
O=C(O)C(O)(c1ccc(-c2ccccc2)cc1)c1ccc(-c2ccccc2)cc1 | > 100 µM | 48.2 µM | 62.6 µM | 32.7 µM | 30.3 µM | > 100 µM | > 100 µM | 41.5 µM | > 100 µM |  |  |  |  |  |  |  |  |  |  | 
Clc1cc2ccccc2c2ccccc12 | > 100 µM | > 100 µM | > 100 µM | > 100 µM | > 100 µM | > 100 µM | > 100 µM | > 100 µM | > 100 µM | > 100 µM |  |  |  |  |  |  |  |  |  | 
COc1ccc(NC(=S)NNC(=O)c2nsc3ccccc23)cc1 | 87.8 µM | 66.8 µM |  | > 100 µM | 52.9 µM | > 100 µM | > 100 µM | > 100 µM | > 100 µM | > 100 µM |  |  |  |  |  |  |  |  |  | 
Clc1ccc(C2CC(c3cccc(Nc4ccncc4)c3)=NN2c2ccc(Cl)cc2)cc1 (stereo unspecified) | 5.52 µM | 2.56 µM | 38.3 µM |  |  |  |  | 2.95 µM |  | 3.27 µM |  | 2.18 µM | 1.21 µM | 12.4 µM |  |  |  | 1.73 µM | 1.55 µM | 
